# pKi: −log10 of the molar value.
# Biological target: T1, Acylase (Pseudomonas aeruginosa, UniProt A0A0G5TC92)
# T1 sequence (A0A0G5TC92 whole entry): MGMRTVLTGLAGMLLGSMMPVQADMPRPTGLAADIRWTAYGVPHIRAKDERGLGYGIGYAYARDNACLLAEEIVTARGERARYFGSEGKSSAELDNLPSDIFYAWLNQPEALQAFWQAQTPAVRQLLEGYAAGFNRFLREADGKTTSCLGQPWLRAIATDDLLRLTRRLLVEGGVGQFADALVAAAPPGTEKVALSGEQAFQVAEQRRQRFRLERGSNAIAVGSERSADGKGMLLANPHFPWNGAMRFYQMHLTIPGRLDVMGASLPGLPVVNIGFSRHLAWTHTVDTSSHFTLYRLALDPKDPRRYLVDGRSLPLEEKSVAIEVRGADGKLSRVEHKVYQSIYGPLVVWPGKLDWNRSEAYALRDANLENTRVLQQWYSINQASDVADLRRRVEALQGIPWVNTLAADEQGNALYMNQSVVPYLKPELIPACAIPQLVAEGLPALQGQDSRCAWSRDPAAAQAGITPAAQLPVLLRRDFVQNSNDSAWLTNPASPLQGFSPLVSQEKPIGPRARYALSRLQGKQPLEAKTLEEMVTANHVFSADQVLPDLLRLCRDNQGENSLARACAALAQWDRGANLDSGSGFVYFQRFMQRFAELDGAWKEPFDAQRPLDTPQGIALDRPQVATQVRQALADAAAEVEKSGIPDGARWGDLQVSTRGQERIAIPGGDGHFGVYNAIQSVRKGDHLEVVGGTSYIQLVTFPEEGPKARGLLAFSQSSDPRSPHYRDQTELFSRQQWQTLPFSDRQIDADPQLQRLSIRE
# Assay: PVdQ Inhibition Assay
# Conditions: pH 8
# Description: Briefly, stock solutions of the colorimetric PvdQ substrate (4-nitrophenyl dodecanoate) were prepared in methanol and stock solutions of each n-alkylboronic acid inhibitor in DMSO. […] Each reaction was initiated by addition of purified PvdQ (10 nM) and product formation was monitored by measuring the increase in absorbance at 402 nm continuously.
row,pKi,Compound
1,2.70,CCB(O)O [1-Ethylboronic acid (C2-B(OH)2)]
2,5.68,CCCCCCB(O)O [1-Hexylboronic acid (C6-B(OH)2)]
3,2.33,CCCB(O)O [1-Propylboronic acid (C3-B(OH)2)]
4,3.26,CCCCB(O)O [Borinic acid derivative]

# Reference: BindingDB's records for doi:10.1021/bi501086s (The University of Texas, 2014)
